Test results from patent US6610791B2, “Photosensitive compound and photosensitive resin” (Toyo Gosai Kogyo Co., Ltd., priority 2000, dated 2003).

Experiment: Measurement of solubility in water at 25° C.
Format: physicochemical
Method: Measurement of [5-(sodium 4-azidobenzylidene-2-sulfonate)-3-(N-(4,4′-dimethoxybutyl)carbamoyl)methyl]-rhodanine in Terms of Solubility in Water and Molar Absorption Coefficient
Measurement of solubility in water at 25° C. was carried out for the compound obtained in Example 3 or 6, and for the compound, which was obtained through the method of Example 2 described in Japanese Patent Application Laid-Open (kokai) No. 10-310769, represented by the following formula. [drawing 17]
Further, UV spectra were measured for the two compounds in water serving as a solvent so as to measure the molar absorption coefficient ε at a wavelength of maximum absorption.

[5-(sodium 4-azidobenzylidene-2-sulfonate)-3-(N-(4,4′-dimethoxybutyl)carbamoyl)methyl]rhodanine
solubility in water (in 100 g of water): 5.4 g
solubility of the former compound relative to the latter (reference) compound (water, ratio of the invention compound to the reference compound): approximately five
